Measurements: patent US8148391B2 (Cephalon, Inc., priority 2006, dated 2012)
Read-outs that look alike come from different tables or passages of the source.

Legend:
[1] = target: T1, baculovirus-expressed ALK (Homo sapiens, UniProt Q9UM73); experiment: ALK Kinase Assay (ELISA-type, time-resolved fluorescence); type: biochemical
T1 construct: host or cells: baculovirus expression system
In short: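 Plates coated with phospholipase C-γ substrate (10 μg/mL in TBS); reaction started with 30 ng/ml ALK and run 15 min at 37° C. Phosphorylated substrate detected with Eu-N1-labeled PT66 antibody. IC50 from sigmoidal variable-slope fit of percent inhibition vs log concentration.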

[2] = target: T2, c-Met (cytoplasmic domain) (Homo sapiens, UniProt P08581); experiment: c-Met Kinase Assay (same methods as for ALK, with modifications); type: biochemical
T2 construct: 10 ng/mL c-Met (cytoplasmic domain, Invitrogen Corporation #PV3143); purchased Invitrogen Corporation PV3143
T2 sequence (P08581 956-1390 limits assumed): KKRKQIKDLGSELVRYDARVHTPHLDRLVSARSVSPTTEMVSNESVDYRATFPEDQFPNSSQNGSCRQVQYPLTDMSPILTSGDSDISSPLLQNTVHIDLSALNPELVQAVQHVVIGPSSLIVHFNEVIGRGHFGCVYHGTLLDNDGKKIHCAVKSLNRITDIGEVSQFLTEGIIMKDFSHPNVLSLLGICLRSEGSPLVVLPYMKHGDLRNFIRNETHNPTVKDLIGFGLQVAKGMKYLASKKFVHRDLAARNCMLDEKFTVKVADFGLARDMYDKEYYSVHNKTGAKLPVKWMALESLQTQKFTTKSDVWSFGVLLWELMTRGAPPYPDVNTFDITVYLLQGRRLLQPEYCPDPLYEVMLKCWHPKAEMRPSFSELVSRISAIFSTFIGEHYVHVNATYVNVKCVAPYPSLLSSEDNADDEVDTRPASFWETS
In short: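 Plates were coated with phospholipase C-γ substrate (10 μg/mL) in TBS, and the reaction was started with 10 ng/mL c-Met cytoplasmic domain and run 15 min at 37 °C. Phosphoproduct was detected with Eu-N1-labelled PT66 antibody. IC50 came from a variable-slope sigmoidal fit of percent inhibition vs log concentration.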

[3] = ALK kinase inhibition, 1 μM ATP, read-out: ALK Activity
[4] = c-Met kinase inhibition, 1 μM ATP, read-out: cMet Activity
[5] = ALK kinase inhibition, 1 μM ATP (Km level), read-out: ALK Activity
[6] = c-Met kinase inhibition, 1 μM ATP (Km level), read-out: cMet Activity
[7] = 1 μM ATP (Km level), read-out: ALK Activity (ALK Kinase Inhibition, IC50)
[8] = 1 μM ATP (Km level), read-out: cMet Activity (c-Met Kinase Inhibition, IC50)
[9] = 1 μM ATP (Km level), 30 ng/ml ALK, 37° C., 15 minutes, read-out: ALK Activity (ALK kinase inhibition, IC50 class)
[10] = 1 μM ATP (Km level), 10 ng/mL c-Met, read-out: cMet Activity (c-Met kinase inhibition, IC50 class)

T1 sequence (Q9UM73 19-1620): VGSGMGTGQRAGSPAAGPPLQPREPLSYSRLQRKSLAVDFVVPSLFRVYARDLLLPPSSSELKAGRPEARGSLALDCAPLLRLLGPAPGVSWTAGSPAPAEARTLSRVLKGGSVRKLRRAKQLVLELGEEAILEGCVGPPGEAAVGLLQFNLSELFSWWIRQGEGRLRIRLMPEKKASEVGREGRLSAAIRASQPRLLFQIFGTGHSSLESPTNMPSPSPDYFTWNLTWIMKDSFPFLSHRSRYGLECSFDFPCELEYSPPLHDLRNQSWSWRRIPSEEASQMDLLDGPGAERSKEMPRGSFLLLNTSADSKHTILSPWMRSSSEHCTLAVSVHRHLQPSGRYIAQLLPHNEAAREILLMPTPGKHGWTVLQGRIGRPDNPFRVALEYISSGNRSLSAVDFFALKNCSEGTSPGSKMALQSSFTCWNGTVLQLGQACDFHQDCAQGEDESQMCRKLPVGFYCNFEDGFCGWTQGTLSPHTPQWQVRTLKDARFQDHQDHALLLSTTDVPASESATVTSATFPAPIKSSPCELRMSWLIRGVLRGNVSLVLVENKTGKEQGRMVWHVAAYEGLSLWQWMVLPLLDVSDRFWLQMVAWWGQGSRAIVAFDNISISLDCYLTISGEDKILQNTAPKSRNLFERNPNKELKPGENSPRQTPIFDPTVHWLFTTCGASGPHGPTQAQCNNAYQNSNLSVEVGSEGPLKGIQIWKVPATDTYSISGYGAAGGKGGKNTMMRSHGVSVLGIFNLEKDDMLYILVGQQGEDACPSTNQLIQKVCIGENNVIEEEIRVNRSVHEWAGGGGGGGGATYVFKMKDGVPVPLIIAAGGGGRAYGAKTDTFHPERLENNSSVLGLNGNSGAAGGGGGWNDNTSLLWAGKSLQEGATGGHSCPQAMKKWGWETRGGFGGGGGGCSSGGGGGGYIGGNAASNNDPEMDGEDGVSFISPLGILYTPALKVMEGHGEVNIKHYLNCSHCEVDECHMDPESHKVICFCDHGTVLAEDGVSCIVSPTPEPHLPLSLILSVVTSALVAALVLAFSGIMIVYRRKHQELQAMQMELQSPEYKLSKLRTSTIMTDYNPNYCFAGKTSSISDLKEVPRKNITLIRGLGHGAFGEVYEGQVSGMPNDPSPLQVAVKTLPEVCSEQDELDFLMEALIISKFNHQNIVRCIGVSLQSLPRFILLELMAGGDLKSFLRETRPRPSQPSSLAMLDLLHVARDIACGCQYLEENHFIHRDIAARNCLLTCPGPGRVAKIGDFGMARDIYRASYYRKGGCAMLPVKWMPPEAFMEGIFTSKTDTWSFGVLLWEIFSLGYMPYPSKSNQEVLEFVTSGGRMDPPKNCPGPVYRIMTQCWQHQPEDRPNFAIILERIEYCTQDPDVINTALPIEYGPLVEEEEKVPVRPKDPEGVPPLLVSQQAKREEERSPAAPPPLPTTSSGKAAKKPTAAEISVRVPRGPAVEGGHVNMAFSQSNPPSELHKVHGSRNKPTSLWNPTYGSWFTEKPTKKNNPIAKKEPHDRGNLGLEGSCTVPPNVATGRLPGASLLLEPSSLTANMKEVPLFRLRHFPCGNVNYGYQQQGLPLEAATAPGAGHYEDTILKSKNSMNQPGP

For `COc1cc2c(cc1Nc1ncc(Cl)c(N[C@@H]3CCCC[C@H]3NS(C)(=O)=O)n1)CCN(CC(=O)N1CCOCC1)CC2` [Example 1528, N-((1R,2R)-2-{5-Chloro-2-[8-methoxy-3-(2-morpholin-4-yl-2-oxo-ethyl)-2,3,4,5-tetrahydro-1H-3-benzazepin-7-ylamino]-pyrimidin-4-ylamino}-cyclohexyl)-methanesulfonamide], the IC50 [1, 3] was under 0.1 µM and the IC50 [2, 4] was over 10 µM.
With `CCN1CCc2c(Nc3ncc(Cl)c(N[C@@H]4CCCC[C@H]4NS(C)(=O)=O)n3)ccc(OC)c2CC1` [Example 155, N-{(1R,2R)-2-[5-Chloro-2-(3-ethyl-9-methoxy-2,3,4,5-tetrahydro-1H-benzo[d]azepin-6-ylamino)-pyrimidin-4-ylamino]-cyclohexyl}-methanesulfonamide] the IC50 [1, 5] was under 0.1 µM and the IC50 [2, 6] was over 10 µM.
With `CNC(=O)c1ccccc1Nc1nc(Nc2ccc3c(c2)C2CC3CN(CCOC)C2)ncc1Cl` (stereo not shown) [Example 161, 2-{5-Chloro-2-[10-(2-methoxy-ethyl)-10-aza-tricyclo[6.3.1.0*2,7*]dodeca-2,4,6-trien-4-ylamino]-pyrimidin-4-ylamino}-N-methyl-benzamide] the IC50 [1, 5] was under 0.1 µM and the IC50 [2, 6] was 0.1 to 1 µM.
`COc1cc2c(cc1Nc1ncc(F)c(Nc3ccc(N4CCOCC4)cc3OC)n1)CCN(CC(=O)N(C)C)CC2` [Example 808, 2-{7-[5-Fluoro-4-(2-methoxy-4-morpholin-4-yl-phenylamino)-pyrimidin-2-ylamino]-8-methoxy-1,2,4,5-tetrahydro-benzo[d]azepin-3-yl}-N,N-dimethyl-acetamide] was tested, and the IC50 [1, 7] was under 0.1 µM and the IC50 [2, 8] was over 10 µM.
`COc1cc2c(cc1Nc1ncc(Cl)c(Nc3ccccc3S(=O)(=O)N3CC[C@@H](N(C)C)C3)n1)CCN(CC(=O)N(C)C)CC2` [Example 845, 2-(7-{5-Chloro-4-[2-((R)-3-dimethylamino-pyrrolidine-1-sulfonyl)-phenylamino]-pyrimidin-2-ylamino}-8-methoxy-1,2,4,5-tetrahydro-benzo[d]azepin-3-yl)-N,N-dimethyl-acetamide] gave an IC50 [1, 7] of under 0.1 µM and an IC50 [2, 8] of over 10 µM.
Work on `COc1ccc2c(c1Nc1ncc(Cl)c(Nc3ccccc3S(=O)(=O)N(C)C)n1)CCC(N1CCOCC1)CC2` (stereo not shown) [Example 1072, 2-[5-Chloro-2-(2-methoxy-7-morpholin-4-yl-6,7,8,9-tetrahydro-5H-benzocyclohepten-1-ylamino)-pyrimidin-4-ylamino]-N,N-dimethyl-benzenesulfonamide] yielded an IC50 [1, 9] of 0.1 to 1 µM and an IC50 [2, 10] of over 10 µM.
For `COc1c(Nc2ncc(Cl)c(Nc3ccccc3S(=O)(=O)N(C)C)n2)ccc2c1CCC(N1CCN(C)CC1)CC2` (stereo not shown) [Example 911, 2-{5-Chloro-2-[1-methoxy-7-(4-methyl-piperazin-1-yl)-6,7,8,9-tetrahydro-5H-benzocyclohepten-2-ylamino]-pyrimidin-4-ylamino}-N,N-dimethyl-benzenesulfonamide], the IC50 [1, 7] was under 0.1 µM and the IC50 [2, 8] was 1 to 10 µM.
In the case of “2-[5-Chloro-2-(4-oxo-1,2,3,4,5,6-hexahydro-benzo[b][1,5]diazocin-8-ylamino)-pyrimidin-4-ylamino]-N-methyl-benzenesulfonamide [Example 1304]”, the IC50 [1, 9] is reported as under 0.1 µM and the IC50 [2, 10] is reported as 0.1 to 1 µM.
`CN1CCN(C(=O)n2ccnc2)Cc2ccc(Nc3ncc(Cl)c(N[C@@H]4CCCC[C@H]4NS(C)(=O)=O)n3)cc21` [Example 482, N-((1R,2R)-2-{5-Chloro-2-[4-(imidazole-1-carbonyl)-1-methyl-2,3,4,5-tetrahydro-1H-benzo[e][1,4]diazepin-8-ylamino]-pyrimidin-4-ylamino}-cyclohexyl)-methanesulfonamide] gave an IC50 [1, 5] of under 0.1 µM and an IC50 [2, 6] of 0.1 to 1 µM.
`COc1cc2c(cc1Nc1ncc(Cl)c(Nc3ccccc3S(=O)(=O)N(C)C)n1)CCN(CC(=O)N1CCC1)CC2` [Example 1201, 2-{2-[3-(2-Azetidin-1-yl-2-oxo-ethyl)-8-methoxy-2,3,4,5-tetrahydro-1H-benzo[d]azepin-7-ylamino]-5-chloro-pyrimidin-4-ylamino}-N,N-dimethyl-benzenesulfonamide] gave an IC50 [1, 9] of under 0.1 µM and an IC50 [2, 10] of over 10 µM.
With `COc1cc2c(cc1Nc1ncc(Cl)c(Nc3ccccc3S(=O)(=O)N3CC[C@@H](O)C3)n1)CCN(CC(=O)N(C)C)CC2` [Example 1205, 2-(7-{5-Chloro-4-[2-((R)-3-hydroxy-pyrrolidine-1-sulfonyl)-phenylamino]-pyrimidin-2-ylamino}-8-methoxy-1,2,4,5-tetrahydro-benzo[d]azepin-3-yl)-N,N-dimethyl-acetamide] the IC50 [1, 9] was under 0.1 µM and the IC50 [2, 10] was 1 to 10 µM.
In the case of `CCOC(=O)c1ccccc1Nc1nc(Nc2ccc3c(c2)CCN(CCOC)CC3)ncc1Cl` [Example 1395, {5-Chloro-2-[3-(2-methoxy-ethyl)-2,3,4,5-tetrahydro-1H-benzo[d]azepin-7-ylamino]-pyrimidin-4-ylamino}-benzoic acid ethyl ester], the IC50 [1, 9] is reported as under 0.1 µM and the IC50 [2, 10] is reported as 0.1 to 1 µM.
`COCCN1CCc2cc(Nc3ncc(Cl)c(Nc4ccc(C(N)=O)cc4OC)n3)c(OC)cc2CC1` [Example 1156, 4-{5-Chloro-2-[8-methoxy-3-(2-methoxy-ethyl)-2,3,4,5-tetrahydro-1H-benzo[d]azepin-7-ylamino]-pyrimidin-4-ylamino}-3-methoxy-benzamide] was tested, and the IC50 [1, 9] was under 0.1 µM and the IC50 [2, 10] was over 10 µM.
For `COCCN1CCc2ccc(Nc3ncc(Cl)c(Nc4ccccc4S(=O)(=O)C(C)C)n3)cc2CC1` [Example 1685, 5-Chloro-N*2*-[3-(2-methoxy-ethyl)-2,3,4,5-tetrahydro-1H-benzo[d]azepin-7-yl]-N*4*-[2-(propane-2-sulfonyl)-phenyl]-pyrimidine-2,4-diamine], the IC50 [1, 3] was under 0.1 µM and the IC50 [2, 4] was 0.1 to 1 µM.
With `CCN1CCc2ccc(Nc3ncc(Cl)c(N[C@@H]4CCCC[C@H]4NC(=O)C(F)(F)F)n3)cc2CC1` [Example 446, N-{(1R,2R)-2-[5-Chloro-2-(3-ethyl-2,3,4,5-tetrahydro-1H-benzo[d]azepin-7-ylamino)-pyrimidin-4-ylamino]-cyclohexyl}-2,2,2-trifluoro-acetamide] the IC50 [1, 5] was under 0.1 µM and the IC50 [2, 6] was 0.1 to 1 µM.
In the case of `COc1cc2c(cc1Nc1ncc(Cl)c(N[C@@H]3CCCC[C@H]3NS(C)(=O)=O)n1)CCN(CCN1CCOCC1)CC2` [Example 1533, N-((1R,2R)-2-{5-Chloro-2-[8-methoxy-3-(2-morpholin-4-yl-ethyl)-2,3,4,5-tetrahydro-1H-3-benzazepin-7-ylamino]-pyrimidin-4-ylamino}-cyclohexyl)-methanesulfonamide], the IC50 [1, 3] is reported as under 0.1 µM and the IC50 [2, 4] is reported as over 10 µM.
`CN1C(=O)CCCc2cc(Nc3ncc(Cl)c(Nc4ccc(N5CCCCC5)cc4C(N)=O)n3)ccc21` [Example 354, 2-[5-Chloro-2-(1-methyl-2-oxo-2,3,4,5-tetrahydro-1H-benzo[b]azepin-7-ylamino)-pyrimidin-4-ylamino]-5-piperidin-1-yl-benzamide] showed an IC50 [1, 5] of under 0.1 µM and an IC50 [2, 6] of under 0.1 µM.
Compound `COCC(COC)N1CCc2cc(Nc3ncc(Cl)c(NC4(CC(N)=O)CCCCC4)n3)c(OC)cc2CC1` [Example 848, 2-(1-{5-Chloro-2-[8-methoxy-3-(2-methoxy-1-methoxymethyl-ethyl)-2,3,4,5-tetrahydro-1H-benzo[d]azepin-7-ylamino]-pyrimidin-4-ylamino}-cyclohexyl)-acetamide] has an IC50 [1, 7] of 0.1 to 1 µM and an IC50 [2, 8] of over 10 µM.
Compound `O=C1CCCc2ccc(Nc3ncc(Cl)c(Nc4c(F)cc(F)cc4N4CCOCC4)n3)cc2N1` [Example 1286, 8-[5-Chloro-4-(2,4-difluoro-6-morpholin-4-yl-phenylamino)-pyrimidin-2-ylamino]-1,3,4,5-tetrahydro-1-benzazepin-2-one] has an IC50 [1, 9] of 1 to 10 µM and an IC50 [2, 10] of 1 to 10 µM.
For `COc1cc2c(cc1Nc1ncc(Cl)c(Nc3cc(C#N)ccc3OC)n1)CCN(CC(=O)N(C)C)CC2` [Example 1149, 2-{7-[5-Chloro-4-(5-cyano-2-methoxy-phenylamino)-pyrimidin-2-ylamino]-8-methoxy-1,2,4,5-tetrahydro-benzo[d]azepin-3-yl}-N,N-dimethyl-acetamide], the IC50 [1, 9] was under 0.1 µM and the IC50 [2, 10] was 1 to 10 µM.
With `O=C1CCCc2ccc(Nc3ncc(Cl)c(Nc4ccccc4OCCN4CCOCC4)n3)cc2N1` [Example 1465, 8-{5-Chloro-4-[2-(2-morpholin-4-yl-ethoxy)-phenylamino]-pyrimidin-2-ylamino}-1,3,4,5-tetrahydro-benzo[b]azepin-2-one] the IC50 [1, 3] was over 10 µM and the IC50 [2, 4] was over 10 µM.
For “3-({2-[5-Chloro-2-(1-ethyl-5,5-dimethyl-2-oxo-2,3,4,5-tetrahydro-1H-1-benzazepin-8-ylamino)-pyrimidin-4-ylamino]-3-fluoro-phenyl}-methyl-amino)-propionitrile [Example 1265]”, the IC50 [1, 9] was 0.1 to 1 µM and the IC50 [2, 10] was 1 to 10 µM.
With `C#CCNC(=O)c1cccc(F)c1Nc1nc(Nc2ccc3c(c2)N(CC)CC(O)(CO)CO3)ncc1Cl` (stereo not shown) [Example 1721, 2-[5-Chloro-2-(9-ethyl-7-hydroxy-7-hydroxymethyl-6,7,8,9-tetrahydro-5-oxa-9-aza-benzocyclohepten-2-ylamino)-pyrimidin-4-ylamino]-3-fluoro-N-prop-2-ynyl-benzamide] the IC50 [1, 3] was 0.1 to 1 µM and the IC50 [2, 4] was 0.1 to 1 µM.
